Literature values as cited in patent publication US10759976B2, “Color changeable adhesives and methods of making such adhesives” (Sensor International, LLC, priority 2018, dated 2020).
Where two headings read alike, the source gives them in different places.

[1] = Table 2, carbon dioxide sensitive pigments/dyes
[2] = Table 3, fluorimetric pigments/dyes
[3] = Table 4, ammonia sensitive pigments/dyes

Row | Compound | pKa [1] | pKa [2] | pKa [3]
1 | 5′ and 6′-Carboxyseminaphtholfluorescein | 7.4 | – | –
2 | 5′ and 6′-Carboxyseminaphtholrhodamine | 7.5 | – | –
3 | O=S(=O)(O)c1cc(O)c2ccc3c(S(=O)(=O)O)cc(S(=O)(=O)O)c4ccc1c2c34 [1, Hydroxypyrene-3,6,8-trisulphonic acid] | 8.1 | 8.1 | –
4 | O=C(O)Cc1cc(=O)oc2cc(O)ccc12 [7-hydroxycoumarin-4-acetic acid] | 7.8 | – | –
5 | O=C1c2ccccc2C(=O)c2c1cc(S(=O)(=O)O)c(O)c2O [Alizarin red S] | – | – | 4.5
6 | O=C1c2ccccc2C(=O)c2c1ccc(O)c2O [Alizarin] | – | – | 6.8
7 | O=S1(=O)OC(c2cc(Cl)c(O)c(Br)c2)(c2cc(Cl)c(O)c(Br)c2)c2ccccc21 [Bromochlorophenol blue] | – | – | 6.0
8 | Cc1c(C2(c3cc(Br)c(O)c(Br)c3C)OS(=O)(=O)c3ccccc32)cc(Br)c(O)c1Br [Bromocresol green] | – | – | 4.7
9 | O=S1(=O)OC(c2cc(Br)c(O)c(Br)c2)(c2cc(Br)c(O)c(Br)c2)c2ccccc21 [Bromophenol blue] | – | – | 3.9
10 | O=S1(=O)OC(c2ccc(O)c(Cl)c2)(c2ccc(O)c(Cl)c2)c2ccccc21 [Chlorophenol red] | – | – | 6.3
11 | CCN(CC)c1ccc(N=Nc2ccc(S(=O)(=O)[O-])cc2)cc1.[K+] [Ethyl orange] | – | – | 4.3
12 | CN(C)c1ccc(N=Nc2ccc(S(=O)(=O)[O-])cc2)cc1.[Na+] [Methyl Orange] | – | – | 4.2
13 | CN(C)c1ccc(/N=N/c2ccccc2C(=O)O)cc1 [Methyl red] | – | – | 5.4
14 | CN(C)c1ccc(N=Nc2ccccc2)cc1 [Methyl yellow] | – | – | 3.3
15 | O=S1(=O)OC(c2ccc(O)cc2)(c2ccc(O)cc2)c2ccccc21 [Phenol Red, phenolsulfonphthalein] | 7.6 | – | 7.6
16 | O=C([O-])c1c(Cl)c(Cl)c(Cl)c(Cl)c1-c1c2cc(Br)c(=O)c(Br)c-2oc2c(Br)c([O-])c(Br)cc12.[Na+].[Na+] [Phloxine B] | – | – | 2.5
17 | Cc1cc(O)c(C(C)C)cc1C1(c2cc(C(C)C)c(O)cc2C)OS(=O)(=O)c2ccccc21 [Thymol blue, thymolsulphonephthalein] | 9.0 | – | 1.6
18 | Cc1cc(O)c(C(C)C)cc1C1(c2cc(C(C)C)c(O)cc2C)OC(=O)c2ccccc21 [Thymolphthalein, 3,3-bis(4-hydroxy-2-methyl-5-propan-2-ylphenyl)-2-benzofuran-1-one] | 9.7 | – | –
19 | Cc1cc(O)ccc1C1(c2ccc(O)cc2C)OS(=O)(=O)c2ccccc21 [m-Cresol Purple] | 8.3 | – | 1.5
20 | NC(=O)NN=Cc1ccccc1O [salicylaldehyde semicarbazone] | – | 7.8 | –
21 | Nitrazine yellow | – | – | 6.4
22 | o-Cresolphthalein | 9.4 | – | –
